Patent publication US6071882A, “Means for treating prostate hypertrophy and prostate cancer” (ASTA Medica AG, priority 1998, dated 2000)
Non-standard residues stand in square brackets, D forms with d. Residues, ends and D or L forms follow the SMILES beside them. dPhe(4-Cl) = N[C@H](Cc1ccc(Cl)cc1)C(=O)O; d2Nal = N[C@H](Cc1ccc2ccccc2c1)C(=O)O; dCit = NC(=O)NCCC[C@@H](N)C(=O)O; d3Pal = N[C@H](Cc1cccnc1)C(=O)O

Assays:
[1] = test system: Prostate carcinoma patients; conditions: 500 μg every 12 hours for 6 weeks; cited from earlier work
[2] = test system: BPH patients; test: Clinical therapy of BPH with Cetrorelix; assay type: in vivo
Description: Cetrorelix is administered in a dose of 0.5 mg to 2 mg daily for 4 to 8 weeks for the therapy of BPH. A dose of 5 mg to 30 mg, dispensed once per week or every 10 days also over a time period of 4 to 8 weeks as well as one every two weeks or one injection per month of 20 mg to 60 mg can also decisively improve the clinical symptoms and signs. […] The prostate volume decreases by 20 to 40% during the treatment time of 4 to 8 weeks. […] In addition, at least 30% of the patients achieve an improvement of the urine flow of 6 ml/sec with this therapy. This is almost equivalent to an improvement like that associated with the golden standard operation, and in considerably shorter time. […] These clinical benefits continue for at least 3 to 6 months after therapy. This allows a long-term therapy of BPH with only an intermittent treatment of 2 to max. 4 injection cycles over 4 to 8 weeks.

[3] = test system: BPH patients; conditions: cited from earlier work

## CC(=O)N[C@H](Cc1ccc2ccccc2c1)C(=O)N[C@H](Cc1ccc(Cl)cc1)C(=O)N[C@H](Cc1cccnc1)C(=O)N[C@@H](CO)C(=O)N[C@@H](Cc1ccc(O)cc1)C(=O)N[C@H](CCCNC(N)=O)C(=O)N[C@@H](CC(C)C)C(=O)N[C@@H](CCCNC(=N)N)C(=O)N1CCC[C@H]1C(=O)N[C@H](C)C(N)=O [Cetrorelix] (Ac-[d2Nal][dPhe(4-Cl)][d3Pal]SY[dCit]LRP[dA]-NH2)
[1]
  overall condition of the patient: considerable improvement
[2]; above those levels associated with castration
  testosterone decrease: Submaximal decreases of testosterone occur
[2]; human, in vivo
  limitations in sexual performance: No limitations in sexual performance are observed
  quality of life: significant improvements
[2]; treatment of 4 to 8 weeks
  increase of the peak flow of the urine: approximately 3 ml/sec
  patients achieving an improvement of the urine flow of 6 ml/sec: at least 30%
[3]; 500 μg every 12 hours for 4 weeks, no castration values during last three weeks
  testosterone levels during treatment: fluctuated at subnormal levels
[3]; 500 μg every 12 hours, all patients (BPH and prostate carcinoma), initially
  testosterone levels, initially: lowering in testosterone levels to a castration level
